From patent US10201586B2 (dated 2019)
Where two headings read alike, the source gives them in different places. Where a SMILES comes first, the peptide text is derived from it. Bridges are numbered along the chain shown (N, C = ends). [ ]: non-standard residue; d: D form. Tle = CC(C)(C)[C@H](N)C(=O)O; hCys = N[C@@H](CCS)C(=O)O; Aib = CC(C)(N)C(=O)O; Sar = CNCC(=O)O

Assays:
[1] = human plasma; conditions: up to 24 hour
[2] = target: T1, Tissue Factor Pathway Inhibitor (TFPI) (Homo sapiens, UniProt P10646); experiment: IC50 ELISA | IC50 [nM]
T1 sequence (P10646 29-304 limits assumed): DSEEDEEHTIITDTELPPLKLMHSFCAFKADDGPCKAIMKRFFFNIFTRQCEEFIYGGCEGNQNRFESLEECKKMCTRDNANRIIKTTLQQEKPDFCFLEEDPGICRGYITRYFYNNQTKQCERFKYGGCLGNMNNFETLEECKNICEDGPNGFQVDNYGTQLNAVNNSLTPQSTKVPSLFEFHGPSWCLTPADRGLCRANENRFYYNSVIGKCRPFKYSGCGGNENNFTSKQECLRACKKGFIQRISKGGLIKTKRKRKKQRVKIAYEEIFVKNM

[3] = target: T2, recombinant human full length TFPI (Homo sapiens, UniProt P10646); experiment: Progression curve | EC50 (µM)
T2 sequence (P10646 29-304 limits assumed): as above
Description: Table printed on a drawing sheet, FIGURE 62F
Head of the field: Progression curve | EC50 (µM)
Designation “n.a.” is “not analyzed.” Progression curve data were obtained using the FXa inhibition assay described in Example 3 with recombinant human full length TFPI. Assay concentration of progression curve assay was 0.0025% (0.1% Tween80 used in peptide dilution buffer).
First copying reader's note: Last part (62F) of a table continued over FIG. 62A-62F.

[4] = target: T1, Tissue Factor Pathway Inhibitor (TFPI); experiment: IC50 ELISA | IC50 [nM]; remark: listed apart in the source
[5] = test system: thrombin generation in FVIII- or FIX-deficient or FVIII-inhibited plasma; experiment: plasma-based thrombin generation assay (calibrated automated thrombography); assay type: biochemical, human
[6] = target: T2, recombinant human full length TFPI; experiment: Progression curve | EC50 (µM); remark: listed apart in the source
[7] = target: T1, Tissue Factor Pathway Inhibitor (TFPI); experiment: IC50 ELISA | IC50 [nM]; remark: listed apart in the source
[8] = target: TFPI (Homo sapiens, UniProt P10646); experiment: IC50 [nm]
Sequence of TFPI (P10646 29-304 limits assumed): as above

Ac-FQSKpNVHVDGYFERL-Aib-AKL-NH2
cleaved bond [1]: Val9-Asp10

CC(=O)N[C@@H](Cc1ccccc1)C(=O)N[C@@H](CCC(N)=O)C(=O)N[C@@H](CO)C(=O)N[C@@H](CCCCN)C(=O)N1CCC[C@@H]1C(=O)N[C@@H](CC(N)=O)C(=O)N[C@H](C(=O)N[C@@H](Cc1c[nH]cn1)C(=O)N[C@H](C(=O)N[C@@H](CC(=O)O)C(=O)N[C@@H]1CSSCC[C@@H](C(=O)N[C@@H](CCCNC(=N)N)C(=O)N[C@@H](CC(C)C)C(=O)NC(C)(C)C(=O)N[C@@H](C)C(=O)N[C@@H](CCCCN)C(=O)N[C@@H](CC(C)C)C(N)=O)NC(=O)[C@H](Cc2ccccc2)NC(=O)[C@H](Cc2ccc(O)cc2)NC1=O)C(C)(C)C)C(C)C [JBT2494 | 4209, Ac-FQSKpNVH-Tle-D[cYF-Hcy-]RL-Aib-AKL-NH2] (Ac-FQSK[dP]NVH[Tle]D[dC]YF[hCys]RL[Aib]AKL-NH2; disulfide 11-14)
IC50 [2]: 2.84 nM | EC50 [3]: 2 nM

CC(=O)N[C@@H](Cc1ccccc1)C(=O)N[C@@H](CCC(N)=O)C(=O)N[C@@H](CO)C(=O)N[C@@H](CCCCN)C(=O)N(C)CC(=O)N[C@@H](CC(N)=O)C(=O)N[C@H](C(=O)N[C@@H](Cc1ccccc1)C(=O)N[C@H](C(=O)N[C@H](C(=O)NCC(=O)N[C@@H](Cc1ccc(O)cc1)C(=O)N[C@@H](Cc1ccccc1)C(=O)N[C@@H](CCC(=O)O)C(=O)N[C@@H](CCCNC(=N)N)C(=O)N[C@@H](CC(C)C)C(=O)NC(C)(C)C(=O)N[C@@H](C)C(=O)N[C@@H](CCCCN)C(=O)N[C@@H](CC(C)C)C(N)=O)[C@@H](C)O)C(C)C)C(C)C [JBT1585 | 4018] (Ac-FQSK[Sar]NVFVTGYFERL[Aib]AKL-NH2)
IC50 [4]: 15.1 nM

CSCC[C@@H]1NC(=O)CNC(=O)[C@@H](NC(=O)[C@H](Cc2ccccc2)NC(=O)[C@H](Cc2c[nH]c3ccccc23)NC(=O)[C@H](CCCCN)NC(=O)[C@H](Cc2ccc(O)cc2)NC(=O)[C@H](CCCNC(=N)N)NC(=O)[C@H](CO)NC(=O)[C@H](C)NC(=O)CNC(=O)[C@H](CO)NC(C)=O)CSSC[C@@H](C(=O)N[C@H](C(=O)N[C@@H](Cc2c[nH]c3ccccc23)C(=O)N[C@H](C(=O)N[C@@H](CCCCN)C(=O)N[C@@H](Cc2ccccc2)C(=O)N[C@@H](CCCNC(=N)N)C(=O)N[C@@H](Cc2ccc(O)cc2)C(=O)N[C@@H](CC(=O)O)C(=O)N[C@H](C(=O)N[C@@H](CO)C(N)=O)[C@@H](C)O)C(C)C)C(C)C)NC(=O)[C@H](CO)NC(=O)[C@H](CCSC)NC(=O)[C@H]([C@@H](C)O)NC(=O)CNC(=O)[C@H](CCCCN)NC(=O)[C@H](CCSC)NC(=O)[C@H](CC(=O)O)NC(=O)[C@H](CCCNC(=N)N)NC1=O [JBT0120]
peak thrombin and peak time ([5]; FIGS. 11A and 11B): improved peak thrombin and peak time, dose dependently

Ac-FQSKpNVHV-C(ME-400MA)-GYFERL-Aib-AKL-NH2 [JBT2403 | 4122]
EC50 [6]: 15.3 nM | IC50 [7]: 22.9 nM

CC(=O)N[C@@H](CO)C(=O)NCC(=O)N[C@H](C(=O)NCC(=O)N[C@@H](CCCNC(=N)N)C(=O)N[C@@H](CC(C)C)C(=O)N[C@@H](CCC(N)=O)C(=O)N[C@H](C(=O)N[C@@H](C)C(=O)N[C@@H](Cc1ccccc1)C(=O)N[C@@H](CCC(N)=O)C(=O)N[C@@H](CO)C(=O)N[C@@H](CCCCN)C(=O)N[C@@H](CCCCN)C(=O)N[C@@H](CC(N)=O)C(=O)N[C@H](C(=O)N[C@@H](Cc1ccccc1)C(=O)N[C@H](C(=O)N[C@@H](Cc1ccccc1)C(=O)NCC(=O)N[C@@H](Cc1ccc(O)cc1)C(=O)N[C@@H](CC(C)C)C(=O)N[C@@H](Cc1ccccc1)C(=O)N[C@@H](CCC(=O)O)C(=O)N[C@@H](CCCNC(=N)N)C(=O)N[C@@H](CC(C)C)C(=O)N[C@@H](CCCNC(=N)N)C(=O)N[C@@H](C)C(=O)N[C@@H](CCCCN)C(=O)N[C@@H](CC(C)C)C(=O)N[C@H](C(=O)N[C@@H](CO)C(N)=O)[C@@H](C)O)C(C)C)C(C)C)C(C)C)C(C)C [JBT0047] (Ac-SGVGRLQVAFQSKKNVFVFGYLFERLRAKLTS-NH2)
FVIII-equivalent activity (mU/ml) in Hem A plasma @ 1 μM peptide [5]: 45 mU/ml

CC(=O)N[C@@H](Cc1ccccc1)C(=O)N[C@@H](CCC(N)=O)C(=O)N[C@@H](CO)C(=O)N[C@@H](CCCCN)C(=O)N1CCC[C@@H]1C(=O)N[C@@H](CC(N)=O)C(=O)N[C@H](C(=O)N[C@@H](Cc1c[nH]cn1)C(=O)N[C@H](C(=O)N[C@@H](CC(=O)O)C(=O)N[C@@H]1CSSC[C@@H](C(=O)N[C@@H](CCCNC(=N)N)C(=O)N[C@@H](CC(C)C)C(=O)NC(C)(C)C(=O)N[C@@H](C)C(=O)N[C@@H](CCCCN)C(=O)N[C@@H](CC(C)C)C(N)=O)NC(=O)[C@H](Cc2ccccc2)NC(=O)[C@H](Cc2ccc(O)cc2)NC1=O)C(C)(C)C)C(C)C [JBT2495 | 4210, Ac-FQSKpNVH-Tle-D[cYFC]RL-Aib-AKL-NH2] (Ac-FQSK[dP]NVH[Tle]D[dC]YFCRL[Aib]AKL-NH2; disulfide 11-14)
IC50 [2]: 3.48 nM | EC50 [3]: 2.1 nM

CSCC[C@@H]1NC(=O)CNC(=O)[C@@H](NC(=O)[C@H](Cc2ccccc2)NC(=O)[C@H](Cc2c[nH]c3ccccc23)NC(=O)[C@H](CCCCN)NC(C)=O)CSSC[C@@H](C(=O)N[C@H](C(=O)N[C@@H](Cc2c[nH]c3ccccc23)C(=O)N[C@H](C(=O)N[C@@H](CCCCN)C(=O)N[C@@H](Cc2ccccc2)C(=O)N[C@@H](CCCNC(=N)N)C(=O)N[C@@H](Cc2ccc(O)cc2)C(=O)N[C@@H](CC(=O)O)C(=O)N[C@H](C(=O)N[C@@H](CO)C(N)=O)[C@@H](C)O)C(C)C)C(C)C)NC(=O)[C@H](CO)NC(=O)[C@H](CCSC)NC(=O)[C@H]([C@@H](C)O)NC(=O)CNC(=O)[C@H](CCCCN)NC(=O)[C@H](CCSC)NC(=O)[C@H](CC(=O)O)NC(=O)[C@H](CCCNC(=N)N)NC1=O [JBT0324 | 1155] (Ac-KWFCGMRDMKGTMSCVWVKFRYDTS-NH2; disulfide 4-15)
IC50 [8]: 1930 nM

Ac-FQSKp-C(ME-400MA)-VHVDGYFERL-Aib-AKL-NH2 [JBT2402 | 4121]
EC50 [6]: 2.6 nM | IC50 [7]: 20.5 nM

CSCC[C@@H]1NC(=O)CNC(=O)[C@@H](NC(=O)[C@H](Cc2ccccc2)NC(=O)[C@H](Cc2c[nH]c3ccccc23)NC(=O)[C@H](CCCCN)NC(=O)[C@H](Cc2ccc(O)cc2)NC(=O)[C@H](CCCNC(=N)N)NC(=O)[C@H](CO)NC(=O)[C@H](C)NC(=O)CNC(=O)[C@H](CO)NC(C)=O)CSSC[C@@H](C(=O)N[C@H](C(=O)N[C@@H](Cc2c[nH]c3ccccc23)C(=O)N[C@H](C(=O)N[C@@H](CCCCN)C(N)=O)C(C)C)C(C)C)NC(=O)[C@H](CO)NC(=O)[C@H](CCSC)NC(=O)[C@H]([C@@H](C)O)NC(=O)CNC(=O)[C@H](CCCCN)NC(=O)[C@H](CCSC)NC(=O)[C@H](CC(=O)O)NC(=O)[C@H](CCCNC(=N)N)NC1=O [JBT0320 | 1103] (Ac-SGASRYKWFCGMRDMKGTMSCVWVK-NH2; disulfide 10-21)
IC50 [8]: 977 nM

Ac-FQSK-dtc-NVHVDGYFERL-Aib-AKL-NH2 [JBT2285 | 4047]
IC50 [4]: 3.44 nM
